# Experimental data: patent publication US20060229364A1, “Antiviral compositions and methods of use” (3M Innovative Properties Company, priority 2005, published 2006)
# System: Type 1 herpes virus
# Experiment: Another mouse study with neat ester (Example 4), treatment from 24 hours post-virus inoculum
# Type: in vivo, mice
# Conditions: neat composition applied 24 hours post-virus inoculum, 3 times daily for 5 days
# Description: Each lesion was assigned a score ranging from 0 (normal skin) to 4 (maximal lesion intensity) defined as “Lesion score”, and two measurements, a vertical length and a horizontal length, were taken of each lesion daily from days 1 through 10. These measurements were multiplied together and the “square area” recorded, defined as “Lesion Size”. The lesion scoring was done by technicians who are unaware of which group of animals they are examining in order to eliminate bias. The occurrence of new, satellite, lesions (e.g., another lesion located anywhere other than the site of the intial lesion) were also noted during this 10-day period. The mean of the lesions score and the lesions size was calculated based on the average of the measurements taken on the eight mice.
# Another mouse study was performed using propylene glycol monolaurate (Capmul PG-12) in a neat composition. The ester was applied 24 hours post-virus inoculum 3 times daily for 5 days. […] The mean day 7 lesion size was 3.1 mm2 compared to 64.4 mm2 for petrolatum vehicle control. The day 7 mean lesion score was 0.2 compared to 1.5 for a control sample containing petrolatum without an antimicrobial.
substance,measurement,value
propylene glycol monolaurate,day 7 mean lesion score,0.2
same,mean day 7 lesion size,3.1 mm2
same,reduction in lesion score and size compared to a placebo ointment (in words),statistically significant reduction
